Reference: US20260055103A1, “2,3,4,9-TETRAHYDRO-1H-PYRIDO[3,4-B]INDOLE DERIVATIVES AS ESTROGEN RECEPTOR MODULATORS FOR THE TREATMENT OF CANCER” (Olema Pharmaceuticals, Inc., priority 2022, published 2026)

Molecular target: T1, estrogen receptor (Homo sapiens, UniProt P03372)
T1 construct: endogenous in cells; host or cells: ECC-1 cells
T1 sequence (P03372 1-595): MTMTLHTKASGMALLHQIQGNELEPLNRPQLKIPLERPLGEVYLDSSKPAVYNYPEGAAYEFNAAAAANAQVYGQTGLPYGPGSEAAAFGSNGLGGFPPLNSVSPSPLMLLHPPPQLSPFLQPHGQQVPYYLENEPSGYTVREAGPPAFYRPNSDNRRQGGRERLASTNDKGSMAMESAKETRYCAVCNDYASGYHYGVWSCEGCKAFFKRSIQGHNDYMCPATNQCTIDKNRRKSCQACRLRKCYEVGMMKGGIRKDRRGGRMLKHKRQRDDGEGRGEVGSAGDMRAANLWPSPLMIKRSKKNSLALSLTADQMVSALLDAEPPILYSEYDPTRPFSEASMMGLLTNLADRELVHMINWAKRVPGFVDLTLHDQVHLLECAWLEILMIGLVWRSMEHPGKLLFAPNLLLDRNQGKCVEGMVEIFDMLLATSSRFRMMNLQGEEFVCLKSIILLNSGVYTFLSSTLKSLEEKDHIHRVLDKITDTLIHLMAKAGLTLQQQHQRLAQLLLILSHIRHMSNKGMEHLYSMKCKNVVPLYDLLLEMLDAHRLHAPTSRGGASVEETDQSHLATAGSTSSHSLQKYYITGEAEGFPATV
Test: Alkaline phosphatase (AP) assay in ECC-1 cells, agonist mode (no E2) and antagonist mode (500 pM E2)
Format: cell-based
Settings: 3 days, AP activity normalized to 500 pM E2 alone, agonist mode without E2, antagonist mode with 500 pM E2
How it was run: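 ECC-1 cells in hormone-depleted medium treated 3 days with compound alone (agonist mode) or with 500 pM E2 (antagonist mode). Alkaline phosphatase read by p-nitrophenyl phosphate hydrolysis, 40 min at 42° C, A405. Activity normalized to 500 pM E2 alone.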

`C[C@@H]1Cc2c([nH]c3ccccc23)[C@@H](c2cnc(N[C@H]3CN(CCCF)C[C@@H]3F)s2)N1CC(F)(F)CO` [Example I-65, 2,2-difluoro-3-((1S,3R)-1-(2-(((3S,4S)-4-fluoro-1-(3-fluoropropyl)pyrrolidin-3-yl)amino)thiazol-5-yl)-3-methyl-1,3,4,9-tetrahydro-2H-pyrido[3,4-b]indol-2-yl)propan-1-ol] was tested. Which “Activity (estrogen receptor modulation, agonism and antagonism)” value (“Activity” below) did it give?
Its value is “+ (estrogen receptor agonism having (i) at least 80% increase in the E2-normalized signal in the AP assay (agonist mode) and (ii) no more than 80% reduction in the E2-normalized signal in the AP assay (antagonist mode))”.

How did the “Activity” value turn out when `C[C@@H]1Cc2c([nH]c3ccccc23)[C@@H](c2ccc(C3CCN(CCF)CC3)s2)N1CC(C)(C)F` [Example I-68, (1S,3R)-1-[5-[1-(2-fluoroethyl)-4-piperidyl]-2-thienyl]-2-(2-fluoro-2-methyl-propyl)-3-methyl-1,3,4,9-tetrahydropyrido[3,4-b]indole] was run?
The value was “++ (estrogen receptor antagonism having (i) between 10% and 80% increase in the E2-normalized signal in the AP assay (agonist mode) and (ii) between 10% and 80% reduction in the E2-normalized signal in the AP assay (antagonist mode))”.

For `C[C@@H]1Cc2c([nH]c3ccccc23)[C@@H](c2cnc(N[C@H]3CCCN(CCCF)C3)s2)N1CC(F)(F)CO` [Example I-66], which “Activity” value is on record?
The value was “++ (estrogen receptor antagonism having (i) between 10% and 80% increase in the E2-normalized signal in the AP assay (agonist mode) and (ii) between 10% and 80% reduction in the E2-normalized signal in the AP assay (antagonist mode))”.

`CCN1CCC(c2ccc([C@@H]3c4[nH]c5ccccc5c4C[C@@H](C)N3CC(C)(C)F)s2)CC1` [Example I-69, (1S,3R)-1-(5-(1-ethylpiperidin-4-yl)thiophen-2-yl)-2-(2-fluoro-2-methylpropyl)-3-methyl-2,3,4,9-tetrahydro-1H-pyrido[3,4-b]indole] was tested. Which “Activity” value did it give?
Its value is “++ (estrogen receptor antagonism having (i) between 10% and 80% increase in the E2-normalized signal in the AP assay (agonist mode) and (ii) between 10% and 80% reduction in the E2-normalized signal in the AP assay (antagonist mode))”.

With `C[C@@H]1Cc2c([nH]c3ccccc23)[C@@H](c2cc(F)c(CC3CN(CCCF)C3)s2)N1CC(C)(C)F` [Example I-13, (1S,3R)-2-(2-fluoro-2-methylpropyl)-1-(4-fluoro-5-((1-(3-fluoropropyl)azetidin-3-yl)methyl)thiophen-2-yl)-3-methyl-2,3,4,9-tetrahydro-1H-pyrido[3,4-b]indole] as the compound, how does the “Activity” value read?
Its value is “++ (estrogen receptor antagonism having (i) between 10% and 80% increase in the E2-normalized signal in the AP assay (agonist mode) and (ii) between 10% and 80% reduction in the E2-normalized signal in the AP assay (antagonist mode))”.

`C[C@@H]1Cc2c([nH]c3ccccc23)[C@@H](c2cnc(CC3CN(CCCF)C3)s2)N1CC(F)F` [Example I-29] was tested. Which “Activity” value did it give?
The value was “+++ (estrogen receptor antagonism (i) with pIC50 greater than 7.5 and at least a 10% reduction in the E2-normalized signal in the AP assay (antagonist mode); and no more than 10% increase in E2-normalized signal in the AP assay (agonist mode))”.

Which “Activity” value does the source give for `C[C@@H]1Cc2c([nH]c3ccccc23)[C@@H](c2ncc(CC3CN(CCCF)C3)s2)N1CC(F)(F)CO` [Example I-44, 2,2-difluoro-3-[(1S,3R)-1-[5-[[1-(3-fluoropropyl)azetidin-3-yl]methyl]thiazol-2-yl]-3-methyl-1,3,4,9-tetrahydropyrido[3,4-b]indol-2-yl]propan-1-ol] here?
Its value is “++ (estrogen receptor antagonism having (i) between 10% and 80% increase in the E2-normalized signal in the AP assay (agonist mode) and (ii) between 10% and 80% reduction in the E2-normalized signal in the AP assay (antagonist mode))”.
